# Where two headings read alike, the source gives them in different places.
# Tests used:
# S. epidermidis = format: cell-based; conditions: S. epidermidis SE002
# [1] = system: MSSA (Smith, ATCC # 19640); experiment: In vivo efficacy, MSSA infection; set-up: species or system S. aureus; conditions: formulation D, 60 min post-infection, end of eight day observation
# S. marcescens = format: cell-based; conditions: for Peptide MIC values: agarose dilution
# [2] = system: vancomycin / teicoplanin resistant enterococci; experiment: microbe, parasite or virus in culture; format: cell-based; conditions: for Peptide MIC Alone: Vancomycin section; for FIC: peptide + Vancomycin
# E. coli = format: cell-based; conditions: for Peptide MIC values: agarose dilution
# bacterial isolates = experiment: microbe, parasite or virus in culture; format: cell-based
# [3] = S. aureus SA014 (also SA014 MRSA)
# [4] = S. aureus SA025 (also SA025 MRSA)
sequence,measurement,setting,value
ILKKFPFFPFRRK [MBI 11A1CN],MIC,S. epidermidis,16 µg/mL
same,% Survival,[1]; 12 mg/kg ip,0%
same,% Survival,[1]; 18 mg/kg ip,0%
same,% Survival,[1]; 24 mg/kg ip,0%
same,MIC,S. marcescens; S. marcescens SBSM2,>128 µg/mL
same,Peptide MIC values,S. marcescens; S. marcescens SM76,>128 µg/mL
same,Peptide MIC values,S. marcescens; S. marcescens SM82,>128 µg/mL
same,Peptide MIC + Vancomycin,[2]; E. faecalis EFS003,32 µg/mL
same,Vancomycin MIC + Peptide,[2]; E. faecalis EFS003,4 µg/mL
same,Peptide MIC Alone,[2]; E. faecalis EFS003,>128 µg/mL
same,Peptide MIC + Vancomycin,[2]; E. faecalis EFS006,0.25 µg/mL
same,Vancomycin MIC + Peptide,[2]; E. faecalis EFS006,4 µg/mL
same,Peptide MIC Alone,[2]; E. faecalis EFS006,128 µg/mL
same,Peptide MIC + Vancomycin,[2]; E. faecalis EFS010,8 µg/mL
same,Vancomycin MIC + Peptide,[2]; E. faecalis EFS010,1 µg/mL
same,Peptide MIC Alone,[2]; E. faecalis EFS010,128 µg/mL
same,Peptide MIC + Vancomycin,[2]; E. faecalis EFS014,2 µg/mL
same,Vancomycin MIC + Peptide,[2]; E. faecalis EFS014,1 µg/mL
same,Peptide MIC Alone,[2]; E. faecalis EFS014,4 µg/mL
same,Peptide MIC + Vancomycin,[2]; E. faecium EFM004,16 µg/mL
same,Vancomycin MIC + Peptide,[2]; E. faecium EFM004,0.5 µg/mL
same,Peptide MIC Alone,[2]; E. faecium EFM004,32 µg/mL
same,Peptide MIC + Vancomycin,[2]; E. faecium EFM007,16 µg/mL
same,Vancomycin MIC + Peptide,[2]; E. faecium EFM007,4 µg/mL
same,Peptide MIC Alone,[2]; E. faecium EFM007,64 µg/mL
same,Peptide MIC + Vancomycin,[2]; E. faecium EFM009,8 µg/mL
same,Vancomycin MIC + Peptide,[2]; E. faecium EFM009,4 µg/mL
same,Peptide MIC Alone,[2]; E. faecium EFM009,64 µg/mL
same,FIC,[2]; E. faecalis EFS003,0.63
same,FIC,[2]; E. faecalis EFS006,0.50
same,FIC,[2]; E. faecalis EFS010,0.13
same,FIC,[2]; E. faecalis EFS014,0.51
same,FIC,[2]; E. faecium EFM004,0.50
same,FIC,[2]; E. faecium EFM007,0.28
same,FIC,[2]; E. faecium EFM009,0.25
same,MIC,E. coli; E. coli ECO002,32 µg/mL
same,Peptide MIC values,E. coli; E. coli ATCC 25922,128 µg/mL
same,Peptide MIC values,E. coli; E. coli ESS,16 µg/mL
same,Peptide MIC values,E. coli; E. coli NCTC 10418,16 µg/mL
same,Peptide MIC Alone,"bacterial isolates; 3. Ciprofloxacin, S. aureus SA10",128 µg/mL
same,Peptide MIC Alone,"bacterial isolates; 3. Ciprofloxacin, S. aureus SA11",>128 µg/mL
same,Peptide MIC Alone,"bacterial isolates; 4. Gentamicin, E. faecium EFM004",32 µg/mL
same,Peptide MIC Alone,"bacterial isolates; 4. Gentamicin, S. aureus SA014 MRSA",8 µg/mL
same,Peptide MIC Alone,"bacterial isolates; 4. Gentamicin, S. epidermidis SE074",32 µg/mL
same,Peptide MIC Alone,"bacterial isolates; 4. Gentamicin, S. maltophilia SMA019",>128 µg/mL
same,Peptide MIC Alone,"bacterial isolates; 4. Gentamicin, S. maltophilia SMA020",>128 µg/mL
same,Mupirocin MIC + Peptide,bacterial isolates; E. coli ECO1,10 µg/mL
same,Peptide MIC + Mupirocin,bacterial isolates; E. coli ECO1,4 µg/mL
same,Peptide MIC Alone,"bacterial isolates; E. coli ECO1, Mupirocin section",32 µg/mL
same,Mupirocin MIC + Peptide,bacterial isolates; E. coli SBECO2,30 µg/mL
same,Peptide MIC + Mupirocin,bacterial isolates; E. coli SBECO2,2 µg/mL
same,Peptide MIC Alone,"bacterial isolates; E. coli SBECO2, Mupirocin section",128 µg/mL
same,Peptide MIC + Vancomycin,bacterial isolates; E. faecalis EFS001,0.125 µg/mL
same,Peptide MIC Alone,bacterial isolates; E. faecalis EFS001,4 µg/mL
same,Vancomycin MIC + Peptide,bacterial isolates; E. faecalis EFS001,0.5 µg/mL
same,Peptide MIC + Vancomycin,bacterial isolates; E. faecalis EFS006,0.25 µg/mL
same,Peptide MIC Alone,bacterial isolates; E. faecalis EFS006,128 µg/mL
same,Vancomycin MIC + Peptide,bacterial isolates; E. faecalis EFS006,4 µg/mL
same,Peptide MIC + Vancomycin,bacterial isolates; E. faecalis EFS007,0.5 µg/mL
same,Peptide MIC Alone,bacterial isolates; E. faecalis EFS007,128 µg/mL
same,Vancomycin MIC + Peptide,bacterial isolates; E. faecalis EFS007,2 µg/mL
same,Peptide MIC + Vancomycin,bacterial isolates; E. faecalis EFS010,2 µg/mL
same,Peptide MIC Alone,bacterial isolates; E. faecalis EFS010,128 µg/mL
same,Vancomycin MIC + Peptide,bacterial isolates; E. faecalis EFS010,4 µg/mL
same,Peptide MIC + Vancomycin,bacterial isolates; E. faecalis EFS012,8 µg/mL
same,Peptide MIC Alone,bacterial isolates; E. faecalis EFS012,64 µg/mL
same,Vancomycin MIC + Peptide,bacterial isolates; E. faecalis EFS012,32 µg/mL
same,Peptide MIC + Vancomycin,bacterial isolates; E. faecalis EFS014,2 µg/mL
same,Peptide MIC Alone,bacterial isolates; E. faecalis EFS014,4 µg/mL
same,Vancomycin MIC + Peptide,bacterial isolates; E. faecalis EFS014,1 µg/mL
same,Gentamicin MIC + Peptide,bacterial isolates; E. faecium EFM004,64 µg/mL
same,Peptide MIC + Gentamicin,bacterial isolates; E. faecium EFM004,1 µg/mL
same,Peptide MIC + Vancomycin,bacterial isolates; E. faecium EFM004,16 µg/mL
same,Peptide MIC Alone,bacterial isolates; E. faecium EFM004,32 µg/mL
same,Vancomycin MIC + Peptide,bacterial isolates; E. faecium EFM004,0.5 µg/mL
same,Peptide MIC + Vancomycin,bacterial isolates; E. faecium EFM007,16 µg/mL
same,Peptide MIC Alone,bacterial isolates; E. faecium EFM007,64 µg/mL
same,Vancomycin MIC + Peptide,bacterial isolates; E. faecium EFM007,4 µg/mL
same,Peptide MIC + Vancomycin,bacterial isolates; E. faecium EFM009,8 µg/mL
same,Peptide MIC Alone,bacterial isolates; E. faecium EFM009,64 µg/mL
same,Vancomycin MIC + Peptide,bacterial isolates; E. faecium EFM009,4 µg/mL
same,Peptide MIC + Tobramycin,bacterial isolates; P. aeruginosa PA026,0.125 µg/mL
same,Tobramycin MIC + Peptide,bacterial isolates; P. aeruginosa PA026,4 µg/mL
same,Peptide MIC Alone,"bacterial isolates; P. aeruginosa PA026, Tobramycin section",>128 µg/mL
same,Peptide MIC + Tobramycin,bacterial isolates; P. aeruginosa PA032,0.5 µg/mL
same,Tobramycin MIC + Peptide,bacterial isolates; P. aeruginosa PA032,8 µg/mL
same,Peptide MIC Alone,"bacterial isolates; P. aeruginosa PA032, Tobramycin section",>128 µg/mL
same,Ciprofloxacin MIC + Peptide,bacterial isolates; S. aureus SA10,16 µg/mL
same,Peptide MIC + Ciprofloxacin,bacterial isolates; S. aureus SA10,4 µg/mL
same,Ciprofloxacin MIC + Peptide,bacterial isolates; S. aureus SA11,32 µg/mL
same,Peptide MIC + Ciprofloxacin,bacterial isolates; S. aureus SA11,1 µg/mL
same,Peptide MIC + Tobramycin,bacterial isolates; [3],8 µg/mL
same,Tobramycin MIC + Peptide,bacterial isolates; [3],0.125 µg/mL
same,Peptide MIC Alone,"bacterial isolates; S. aureus SA014 (also SA014 MRSA), Tobramycin section",16 µg/mL
same,Gentamicin MIC + Peptide,bacterial isolates; S. aureus SA014 MRSA,2 µg/mL
same,Peptide MIC + Gentamicin,bacterial isolates; S. aureus SA014 MRSA,4 µg/mL
same,Peptide MIC + Tobramycin,bacterial isolates; [4],4 µg/mL
same,Tobramycin MIC + Peptide,bacterial isolates; [4],0.125 µg/mL
same,Peptide MIC Alone,"bacterial isolates; S. aureus SA025 (also SA025 MRSA), Tobramycin section",8 µg/mL
same,Gentamicin MIC + Peptide,bacterial isolates; S. epidermidis SE074,1 µg/mL
same,Peptide MIC + Gentamicin,bacterial isolates; S. epidermidis SE074,16 µg/mL
same,Peptide MIC + Tobramycin,bacterial isolates; S. haemolyticus SHA001,0.125 µg/mL
same,Tobramycin MIC + Peptide,bacterial isolates; S. haemolyticus SHA001,2 µg/mL
same,Peptide MIC Alone,"bacterial isolates; S. haemolyticus SHA001, Tobramycin section",8 µg/mL
same,Peptide MIC + Tobramycin,bacterial isolates; S. haemolyticus SHA005,0.125 µg/mL
same,Tobramycin MIC + Peptide,bacterial isolates; S. haemolyticus SHA005,4 µg/mL
same,Peptide MIC Alone,"bacterial isolates; S. haemolyticus SHA005, Tobramycin section",16 µg/mL
same,Gentamicin MIC + Peptide,bacterial isolates; S. maltophilia SMA019,2 µg/mL
same,Peptide MIC + Gentamicin,bacterial isolates; S. maltophilia SMA019,16 µg/mL
same,Gentamicin MIC + Peptide,bacterial isolates; S. maltophilia SMA020,2 µg/mL
same,Peptide MIC + Gentamicin,bacterial isolates; S. maltophilia SMA020,16 µg/mL
same,Peptide MIC + Tobramycin,bacterial isolates; S. maltophilia SMA029,32 µg/mL
same,Tobramycin MIC + Peptide,bacterial isolates; S. maltophilia SMA029,4 µg/mL
same,Peptide MIC Alone,"bacterial isolates; S. maltophilia SMA029, Tobramycin section",>128 µg/mL
same,Peptide MIC + Tobramycin,bacterial isolates; S. maltophilia SMA030,64 µg/mL
same,Tobramycin MIC + Peptide,bacterial isolates; S. maltophilia SMA030,2 µg/mL
same,Peptide MIC Alone,"bacterial isolates; S. maltophilia SMA030, Tobramycin section",>128 µg/mL
same,FIC,"bacterial isolates; peptide + Ciprofloxacin, S. aureus SA10",0.53
same,FIC,"bacterial isolates; peptide + Ciprofloxacin, S. aureus SA11",0.50
same,FIC,"bacterial isolates; peptide + Gentamicin, E. faecium EFM004",0.28
same,FIC,"bacterial isolates; peptide + Gentamicin, S. aureus SA014 MRSA",0.56
same,FIC,"bacterial isolates; peptide + Gentamicin, S. epidermidis SE074",0.51
same,FIC,"bacterial isolates; peptide + Gentamicin, S. maltophilia SMA019",0.31
same,FIC,"bacterial isolates; peptide + Gentamicin, S. maltophilia SMA020",0.31
same,FIC,"bacterial isolates; peptide + Mupirocin, E. coli ECO1",0.14
same,FIC,"bacterial isolates; peptide + Mupirocin, E. coli SBECO2",0.05
same,FIC,"bacterial isolates; peptide + Tobramycin, P. aeruginosa PA026",0.50
same,FIC,"bacterial isolates; peptide + Tobramycin, P. aeruginosa PA032",0.50
same,FIC,"bacterial isolates; peptide + Tobramycin, S. aureus SA014 (also SA014 MRSA)",0.50
same,FIC,"bacterial isolates; peptide + Tobramycin, S. aureus SA025 (also SA025 MRSA)",0.50
same,FIC,"bacterial isolates; peptide + Tobramycin, S. haemolyticus SHA001",0.52
same,FIC,"bacterial isolates; peptide + Tobramycin, S. haemolyticus SHA005",0.51
same,FIC,"bacterial isolates; peptide + Tobramycin, S. maltophilia SMA029",0.16
same,FIC,"bacterial isolates; peptide + Tobramycin, S. maltophilia SMA030",0.27
same,FIC,"bacterial isolates; peptide + Vancomycin, E. faecalis EFS001",0.53
same,FIC,"bacterial isolates; peptide + Vancomycin, E. faecalis EFS006",0.50
same,FIC,"bacterial isolates; peptide + Vancomycin, E. faecalis EFS007",0.50
same,FIC,"bacterial isolates; peptide + Vancomycin, E. faecalis EFS010",0.27
same,FIC,"bacterial isolates; peptide + Vancomycin, E. faecalis EFS012",0.25
same,FIC,"bacterial isolates; peptide + Vancomycin, E. faecalis EFS014",0.51
same,FIC,"bacterial isolates; peptide + Vancomycin, E. faecium EFM004",0.50
same,FIC,"bacterial isolates; peptide + Vancomycin, E. faecium EFM007",0.28
same,FIC,"bacterial isolates; peptide + Vancomycin, E. faecium EFM009",0.25

# Reference: US20020035061A1, “COMPOSITIONS AND METHODS FOR TREATING INFECTIONS USING CATIONIC PEPTIDES ALONE OR IN COMBINATION WITH ANTIBIOTICS” (priority 1996, published 2002)
